Entries after “also recorded” stand apart in the source; their conditions may differ. Non-standard residues stand in square brackets, D forms with d. Residues, ends and D or L forms follow the SMILES beside them. Dmt = Cc1cc(O)cc(C)c1C[C@H](N)C(=O)O
How the values were obtained:
[1] = Body weight and heart rate during the infarction/reperfusion experiment; assay type: in vivo, rat
Description: Adult male […] rats (F344 strain, National Institute of Aging, maintained by Harian Sprague-Dawley Inc.), weighting between 285 and 425 gm, were used. Twenty-four rats (n=8/group) were randomly assigned to one of three groups: (1) Control group was given 0.4 ml of saline as an intra-peritoneal (IP) injection 30 minutes before the ligation of left anterior descending coronary artery, followed by same IP dose injection 5 minutes before reperfusion; (2) SS-31 group was treated with SS-31 (3 mg/kg dissolved in 0.4 ml of saline) as an IP injection 30 minutes before the ligation followed by same IP dose injection as maintenance 5 minutes before reperfusion; and (3) SS-20 group was treated with SS-20 (3 mg/kg dissolved in 0.4 ml of saline) as an IP injection 30 minutes before the ligation followed by same dose IP injection as maintenance just 5 minutes before reperfusion. Also, Sham-operated rats (n=3) were used to account for possible effects related to the surgical protocol. All procedures were performed in a blinded manner, with the groups assigned letters and their identities unknown to the operators. Likewise, the two independent investigators analyzing the data were blind to the treatment assignments.
After anesthesia with ketamine (90 mg/kg IP) and xylazine (4 mg/kg IP), a tracheotomy was performed, and the rat was intubated with polyethylene tube and ventilated (Harvard Rodent Ventilator model 683) with room air and a tidal volume of 0.65 ml/100 gm of body weight at 90 breaths per minute. Body temperature was maintained at 37° C. by using a heated operating table. The internal jugular vein was surgically exposed and a polyethylene tube was inserted for Evans blue dye solution injection. Peripheral limb electrodes were inserted subcutaneously and electrocardiogram was monitored throughout the procedure.
An ECG was recorded continuously from a standard lead II (AC AMP 700) inserted into the limbs of all rats. The ECG was printed at 25 mm/second. The cardiac arrhythmias were monitored and assessed in accordance with the Lambeth Convention. The assessment was performed in a blinded manner using the original paper recordings. A validated score was used to quantify the severity of cardiac arrhythmias. The score consisted of six types: 0, no ventricular extrasystoles (VES), ventricular tachycardia (VT) or ventricular fibrillation (VF); 1=VES; 2=one to five episodes of VT (more than four coupled VES); 3=more than five episodes of VT and/or one VF; 4=two to five episodes of VF; 5=more than five episodes of VF.
(§1) All values are expressed as mean±standard error of mean (S.E.M.). Statistical analyses were performed using SPSS version 10. Differences among groups in body weight, heart rate, arrhythmia, area at risk as a percentage of the left ventricle, and area of infarction as a percentage of the area at risk were analyzed using ANOVA. If significant differences were detected, comparisons between the control group and the 2 treatment groups were conducted using the Mann-Whitney U-test. A two-tailed p<0.05 was regarded as significant.

[2] = system: Sprague-Dawley rats; test: Assessment of arrhythmias in infarction/reperfusion; assay type: in vivo, rat; details: 3 mg/kg IP twice, entire study period
Description: (§2) Adult male […] rats (F344 strain, National Institute of Aging, maintained by Harian Sprague-Dawley Inc.), weighting between 285 and 425 gm, were used. […]
An ECG was recorded continuously from a standard lead II (AC AMP 700) inserted into the limbs of all rats. […] The cardiac arrhythmias were monitored and assessed in accordance with the Lambeth Convention. […] A validated score was used to quantify the severity of cardiac arrhythmias. […]
as §1, with “Statistical analyses were performed using SPSS version 10.” left out, “A two-tailed p<0.05 was regarded as significant.” left out

[3] = system: mitochondrial permeability transition (MPT) in isolated mitochondria; test: Mitochondrial membrane potential and MPT measured with TMRM; assay type: biochemical, mouse; details: pretreatment 10 μM
Description: In addition to having no direct effect on mitochondrial potential, [Dmt^1]DALDA was able to protect against MPT induced by Ca^2+ overload.
3-Nitropropionic acid (3NP) is an irreversible inhibitor of succinate dehydrogenase in complex II of the electron transport chain. Addition of 3NP (1 mM) to isolated mitochondria caused dissipation of mitochondrial potential and onset of MPT (FIG. 2C).

[4] = system: isolated mitochondria; test: Cytochrome c release from isolated mitochondria (ELISA); assay type: biochemical, mouse; details: Ca2+ overload
Description: (§3) MPT pore opening results in mitochondrial swelling. We examined the effects of [Dmt^1]DALDA on mitochondrial swelling by measuring reduction in absorbance at 540 nm (A540). The mitochondrial suspension was then centrifuged and cytochrome c in the mitochondrial pellet and supernatant determined by a commercially-available ELISA kit.
(§4) The methods for study are as described above for SS-02. In this example, mitochondrial swelling was measured using light scattering monitored at 570 nm.

[5] = system: N2A cells; test: tBHP-induced mitochondrial depolarization (TMRM, confocal); assay type: cell-based; details: 50 μM tBHP, 1 nM peptide, 6 h
Description: FIG. 7. SS-31 protected against tBHP-induced mitochondrial depolarization and viability. N2A cells were plated in glass bottom dishes and treated with (A) control, or with (B) 50 μM tBHP, alone or with (e) 1 nM SS-31, for 6 hours. Cells were loaded with TMRM (20 nM) and imaged by confocal laser scanning microscopy using ex/em of 552/570 nm.
To investigate whether SS-31 prevents mitochondria) depolarization caused by tBHP, N2A cells were treated with 50 μM tBHP for 6 h.

[6] = system: isolated perfused guinea pig heart; test: Ischemia-reperfusion myocardial stunning in isolated perfused heart (Langendorff); details: 1 nM
Description: Guinea pig hearts were rapidly isolated, and the aorta was cannulated in situ and perfused in a retrograde fashion with an oxygenated Krebs-Henseleit solution (pH 7.4) at 34° C. The heart was then excised, mounted on a modified Langendorff perfusion apparatus, and perfused at constant pressure (40 cm H2O). Contractile force was measured with a small hook inserted into the apex of the left ventricle and the silk ligature tightly connected to a force-displacement transducer. Coronary flow was measured by timed collection of pulmonary artery effluent.
Reperfusion was carried out with the same solution used prior to ischemia.

[7] = system: isolated mitochondria; test: Mitochondrial swelling (absorbance 540 nm or light scattering 570 nm); assay type: biochemical, mouse; details: 50 μM peptide, light scattering at 570 nm
Description: as §3, §4

[8] = system: Sprague-Dawley rats; test: Myocardial infarction/reperfusion, area at risk and area of infarction; assay type: in vivo, rat; details: 3 mg/kg IP 30 min before ligation and 5 min before reperfusion; 1 h ischemia, 1 h reperfusion
Description: as §2
After anesthesia with ketamine (90 mg/kg IP) and xylazine (4 mg/kg IP), a tracheotomy was performed, and the rat was intubated with polyethylene tube and ventilated (Harvard Rodent Ventilator model 683) with room air and a tidal volume of 0.65 ml/100 gm of body weight at 90 breaths per minute. […] Peripheral limb electrodes were inserted subcutaneously and electrocardiogram was monitored throughout the procedure. […]
At the end of reperfusion, the left coronary artery was briefly re-occluded and Evans blue dye solution (2 ml of 2%, Sigma) was slowly injected into the jugular vein to distinguish the perfused area (blue staining) from the area at risk (no staining). […] After a 14-day formalin immersion, the slices were scanned again and all scanned areas were quantified with NIH Imagesoftware. […]

Cc1cc(O)cc(C)c1C[C@H](NC(=O)[C@H](N)CCCNC(=N)N)C(=O)N[C@@H](CCCCN)C(=O)N[C@@H](Cc1ccccc1)C(N)=O [SS-31, D-Arg-2′6′Dmt-Lys-Phe-NH2] (H-[dR][Dmt]KF-NH2; N-terminus assumed)
Heart Rate Baseline ([1]; Baseline): 257 ± 10 | Heart Rate Ischemia ([1]; first column): 184 ± 14 | Heart Rate Ischemia ([1]; second column): 169 ± 15 | Heart Rate Open chest ([1]; Open chest): 236 ± 8 | Heart Rate Reperfusion ([1]; first column): 161 ± 12 | Heart Rate Reperfusion ([1]; second column): 164 ± 13 | Severity and occurrence rate of cardiac arrhythmias (score) [2]: 5 points | MPT induced by Ca2+ overload [3]: same ability to protect; also recorded: prevents onset of MPT | Ca2+-induced release of cytochrome c [4]: same ability to protect | tBHP-induced loss of mitochondrial potential (TMRM fluorescence) [5]: completely blocked; also recorded: protected | cardiac stunning [6]: complete inhibition of cardiac stunning | coronary flow throughout reperfusion [6]: well-sustained | heart rate [6]: no decrease | myocardial contractile force during ischemia-reperfusion ([6]; 30 min global ischemia): tolerated ischemia much better than buffer-treated hearts; also recorded: protects myocardial contractile force | mitochondrial swelling induced by Ca2+ [7]: same ability to protect; also recorded: inhibited mitochondrial swelling | AAR/LV ratio (area at risk relative to left ventricle) [8]: 55.9±1.4% | AI/AAR ratio (area of infarction as percentage of area at risk) [8]: 53.9±1.1%
